# Measured values published in PubChem BioAssay (NCI).
#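 Interpolation was linear, between the two tested concentrations surrounding the appropriate level; five concentrations were tested over 48 hours in 96-well plates. TGI is the concentration that stops growth completely.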
# Legend:
# Experiment in all cases: NCI-60 cell line screen, 48 h
# HCT-15 colon = tested on: HCT-15 colon
# NCI-H460 lung = tested on: NCI-H460 lung
# OVCAR-8 ovarian = tested on: OVCAR-8 ovarian
# MDA-MB-435 = tested on: MDA-MB-435
# SF-295 CNS = tested on: SF-295 CNS
# M14 melanoma = tested on: M14 melanoma
# MOLT-4 leukemia = tested on: MOLT-4 leukemia
# MALME-3M melanoma = tested on: MALME-3M melanoma
# RXF 393 renal = tested on: RXF 393 renal
# HT29 colon = tested on: HT29 colon
# HS 578T breast = tested on: HS 578T breast
# K-562 leukemia = tested on: K-562 leukemia
# SNB-19 CNS = tested on: SNB-19 CNS
# ACHN renal = tested on: ACHN renal
# NCI-H226 lung = tested on: NCI-H226 lung
# SF-539 CNS = tested on: SF-539 CNS
# LOX IMVI melanoma = tested on: LOX IMVI melanoma
# U251 CNS = tested on: U251 CNS
# SNB-75 CNS = tested on: SNB-75 CNS
# NCI/ADR-RES ovarian = tested on: NCI/ADR-RES ovarian
# SK-OV-3 ovarian = tested on: SK-OV-3 ovarian
# SN12C renal = tested on: SN12C renal
# OVCAR-5 ovarian = tested on: OVCAR-5 ovarian
# BT-549 breast = tested on: BT-549 breast
# 786-0 renal = tested on: 786-0 renal
# HOP-92 NSCLC = tested on: HOP-92 NSCLC
# SK-MEL-5 melanoma = tested on: SK-MEL-5 melanoma
# MDA-MB-231 breast = tested on: MDA-MB-231 breast
# NCI-H23 lung = tested on: NCI-H23 lung
# RPMI-8226 leukemia = tested on: RPMI-8226 leukemia
# HOP-62 NSCLC = tested on: HOP-62 NSCLC
# PC-3 prostate = tested on: PC-3 prostate
# SK-MEL-2 melanoma = tested on: SK-MEL-2 melanoma
# T-47D breast = tested on: T-47D breast
# HCC-2998 colon = tested on: HCC-2998 colon
# UACC-62 melanoma = tested on: UACC-62 melanoma
# SF-268 CNS = tested on: SF-268 CNS
# SR leukemia = tested on: SR leukemia
# TK-10 renal = tested on: TK-10 renal
# KM12 colon = tested on: KM12 colon
# NCI-H522 lung = tested on: NCI-H522 lung
# A549 NSCLC = tested on: A549 NSCLC
# IGROV1 ovarian = tested on: IGROV1 ovarian
# UO-31 renal = tested on: UO-31 renal
# EKVX NSCLC = tested on: EKVX NSCLC
# CAKI-1 renal = tested on: CAKI-1 renal
# SK-MEL-28 melanoma = tested on: SK-MEL-28 melanoma
# CCRF-CEM leukemia = tested on: CCRF-CEM leukemia
# OVCAR-4 ovarian = tested on: OVCAR-4 ovarian
# MCF7 breast = tested on: MCF7 breast
# DU-145 prostate = tested on: DU-145 prostate
# A498 renal = tested on: A498 renal
# COLO 205 colon = tested on: COLO 205 colon
# SW-620 colon = tested on: SW-620 colon
# OVCAR-3 ovarian = tested on: OVCAR-3 ovarian
# HL-60(TB) leukemia = tested on: HL-60(TB) leukemia
# MDA-N = tested on: MDA-N
# UACC-257 melanoma = tested on: UACC-257 melanoma
# HCT-116 colon = tested on: HCT-116 colon
# DLD-1 colon = tested on: DLD-1 colon
# M19-MEL melanoma = tested on: M19-MEL melanoma
# XF 498 CNS = tested on: XF 498 CNS
# DMS 114 small cell lung = tested on: DMS 114 small cell lung
# HOP-18 NSCLC = tested on: HOP-18 NSCLC
# DMS 273 small cell lung = tested on: DMS 273 small cell lung
# SNB-78 CNS = tested on: SNB-78 CNS
structure (smiles),measurement,setting,value
Nc1ccc(-c2nc3ccccc3s2)cc1Br,TGI,HCT-15 colon,> 100 µM
same,TGI,NCI-H460 lung,> 100 µM
same,TGI,OVCAR-8 ovarian,> 100 µM
same,TGI,MDA-MB-435,> 100 µM
same,TGI,SF-295 CNS,> 100 µM
same,TGI,M14 melanoma,> 100 µM
same,TGI,MOLT-4 leukemia,> 100 µM
same,TGI,MALME-3M melanoma,> 100 µM
same,TGI,RXF 393 renal,> 100 µM
same,TGI,HT29 colon,> 100 µM
same,TGI,HS 578T breast,> 100 µM
same,TGI,K-562 leukemia,> 100 µM
same,TGI,SNB-19 CNS,> 100 µM
same,TGI,ACHN renal,> 100 µM
same,TGI,NCI-H226 lung,> 100 µM
same,TGI,SF-539 CNS,> 78.9 µM
same,TGI,LOX IMVI melanoma,> 100 µM
same,TGI,U251 CNS,> 100 µM
same,TGI,SNB-75 CNS,> 86.4 µM
same,TGI,NCI/ADR-RES ovarian,> 100 µM
same,TGI,SK-OV-3 ovarian,> 100 µM
same,TGI,SN12C renal,> 100 µM
same,TGI,OVCAR-5 ovarian,> 100 µM
same,TGI,BT-549 breast,> 100 µM
same,TGI,786-0 renal,> 100 µM
same,TGI,HOP-92 NSCLC,> 100 µM
same,TGI,SK-MEL-5 melanoma,> 100 µM
same,TGI,MDA-MB-231 breast,> 100 µM
same,TGI,NCI-H23 lung,> 100 µM
same,TGI,RPMI-8226 leukemia,> 100 µM
same,TGI,HOP-62 NSCLC,> 68.3 µM
same,TGI,PC-3 prostate,> 100 µM
same,TGI,SK-MEL-2 melanoma,> 100 µM
same,TGI,T-47D breast,> 100 µM
same,TGI,HCC-2998 colon,> 100 µM
same,TGI,UACC-62 melanoma,> 100 µM
same,TGI,SF-268 CNS,> 100 µM
same,TGI,SR leukemia,> 100 µM
same,TGI,TK-10 renal,> 100 µM
same,TGI,KM12 colon,> 100 µM
same,TGI,NCI-H522 lung,> 100 µM
same,TGI,A549 NSCLC,> 100 µM
same,TGI,IGROV1 ovarian,> 100 µM
same,TGI,UO-31 renal,> 100 µM
same,TGI,EKVX NSCLC,> 100 µM
same,TGI,CAKI-1 renal,> 100 µM
same,TGI,SK-MEL-28 melanoma,> 100 µM
same,TGI,CCRF-CEM leukemia,> 100 µM
same,TGI,OVCAR-4 ovarian,> 100 µM
same,TGI,MCF7 breast,> 100 µM
same,TGI,DU-145 prostate,> 100 µM
same,TGI,A498 renal,> 32.5 µM
same,TGI,COLO 205 colon,> 100 µM
same,TGI,SW-620 colon,> 100 µM
same,TGI,OVCAR-3 ovarian,> 100 µM
same,TGI,HL-60(TB) leukemia,> 100 µM
same,TGI,MDA-N,> 100 µM
same,TGI,UACC-257 melanoma,> 100 µM
COc1cc(C=O)cc(C=Nc2ccc(S(N)(=O)=O)cc2)c1O,TGI,HCT-15 colon,> 100 µM
same,TGI,NCI-H460 lung,74.6 µM
same,TGI,OVCAR-8 ovarian,> 100 µM
same,TGI,MDA-MB-435,49 µM
same,TGI,SF-295 CNS,23.2 µM
same,TGI,M14 melanoma,14.6 µM
same,TGI,MOLT-4 leukemia,64.2 µM
same,TGI,MALME-3M melanoma,7.78 µM
same,TGI,RXF 393 renal,14.5 µM
same,TGI,HT29 colon,> 100 µM
same,TGI,HS 578T breast,6.16 µM
same,TGI,K-562 leukemia,> 100 µM
same,TGI,SNB-19 CNS,> 100 µM
same,TGI,ACHN renal,35.2 µM
same,TGI,NCI-H226 lung,9.58 µM
same,TGI,SF-539 CNS,7.94 µM
same,TGI,LOX IMVI melanoma,42.7 µM
same,TGI,U251 CNS,> 100 µM
same,TGI,SNB-75 CNS,> 100 µM
same,TGI,NCI/ADR-RES ovarian,> 100 µM
same,TGI,SK-OV-3 ovarian,7.93 µM
same,TGI,SN12C renal,35.5 µM
same,TGI,OVCAR-5 ovarian,> 100 µM
same,TGI,BT-549 breast,> 100 µM
same,TGI,HOP-92 NSCLC,21.7 µM
same,TGI,SK-MEL-5 melanoma,23 µM
same,TGI,MDA-MB-231 breast,76.4 µM
same,TGI,NCI-H23 lung,> 100 µM
same,TGI,RPMI-8226 leukemia,33.3 µM
same,TGI,HOP-62 NSCLC,48.5 µM
same,TGI,PC-3 prostate,21.3 µM
same,TGI,SK-MEL-2 melanoma,20.8 µM
same,TGI,T-47D breast,> 100 µM
same,TGI,HCC-2998 colon,42.7 µM
same,TGI,UACC-62 melanoma,> 100 µM
same,TGI,SF-268 CNS,39.2 µM
same,TGI,SR leukemia,42.1 µM
same,TGI,TK-10 renal,> 100 µM
same,TGI,KM12 colon,> 100 µM
same,TGI,NCI-H522 lung,44.5 µM
same,TGI,A549 NSCLC,> 100 µM
same,TGI,IGROV1 ovarian,> 100 µM
same,TGI,UO-31 renal,> 100 µM
same,TGI,EKVX NSCLC,> 100 µM
same,TGI,CAKI-1 renal,49.3 µM
same,TGI,SK-MEL-28 melanoma,99 µM
same,TGI,CCRF-CEM leukemia,33.8 µM
same,TGI,OVCAR-4 ovarian,> 100 µM
same,TGI,MCF7 breast,> 100 µM
same,TGI,DU-145 prostate,> 100 µM
same,TGI,A498 renal,48.2 µM
same,TGI,COLO 205 colon,76.9 µM
same,TGI,SW-620 colon,> 100 µM
same,TGI,HCT-116 colon,94.7 µM
same,TGI,OVCAR-3 ovarian,> 100 µM
same,TGI,HL-60(TB) leukemia,75.1 µM
same,TGI,MDA-N,28.1 µM
same,TGI,UACC-257 melanoma,38.5 µM
Nc1c(-c2nc3ccccc3[nH]2)sc(=S)n1-c1ccc(Cl)cc1,TGI,HCT-15 colon,61.8 µM
same,TGI,OVCAR-8 ovarian,54.5 µM
same,TGI,SF-295 CNS,43.6 µM
same,TGI,M14 melanoma,82.7 µM
same,TGI,MOLT-4 leukemia,> 100 µM
same,TGI,MALME-3M melanoma,> 100 µM
same,TGI,RXF 393 renal,41.3 µM
same,TGI,HT29 colon,42.6 µM
same,TGI,K-562 leukemia,> 100 µM
same,TGI,SNB-19 CNS,57.4 µM
same,TGI,DLD-1 colon,> 100 µM
same,TGI,ACHN renal,43 µM
same,TGI,NCI-H226 lung,52.2 µM
same,TGI,SF-539 CNS,37.2 µM
same,TGI,LOX IMVI melanoma,50.5 µM
same,TGI,U251 CNS,53.9 µM
same,TGI,SNB-75 CNS,47.6 µM
same,TGI,SK-OV-3 ovarian,56.9 µM
same,TGI,SN12C renal,50.1 µM
same,TGI,OVCAR-5 ovarian,> 100 µM
same,TGI,M19-MEL melanoma,84.2 µM
same,TGI,XF 498 CNS,52.4 µM
same,TGI,786-0 renal,36.7 µM
same,TGI,DMS 114 small cell lung,42 µM
same,TGI,SK-MEL-5 melanoma,67.6 µM
same,TGI,NCI-H23 lung,81.8 µM
same,TGI,RPMI-8226 leukemia,90.2 µM
same,TGI,HOP-62 NSCLC,47.3 µM
same,TGI,SK-MEL-2 melanoma,63.8 µM
same,TGI,HOP-18 NSCLC,38.6 µM
same,TGI,HCC-2998 colon,48.8 µM
same,TGI,UACC-62 melanoma,48.4 µM
same,TGI,DMS 273 small cell lung,39.8 µM
same,TGI,SF-268 CNS,54.9 µM
same,TGI,SNB-78 CNS,66.3 µM
same,TGI,TK-10 renal,56.1 µM
same,TGI,KM12 colon,78.3 µM
same,TGI,NCI-H522 lung,58.1 µM
same,TGI,A549 NSCLC,51.1 µM
same,TGI,IGROV1 ovarian,73.2 µM
same,TGI,UO-31 renal,55.7 µM
same,TGI,EKVX NSCLC,67.4 µM
same,TGI,CAKI-1 renal,54.6 µM
same,TGI,SK-MEL-28 melanoma,> 100 µM
same,TGI,CCRF-CEM leukemia,> 100 µM
same,TGI,OVCAR-4 ovarian,40.4 µM
same,TGI,A498 renal,88.2 µM
same,TGI,COLO 205 colon,> 100 µM
same,TGI,SW-620 colon,> 100 µM
same,TGI,OVCAR-3 ovarian,36.4 µM
same,TGI,HL-60(TB) leukemia,> 100 µM
same,TGI,UACC-257 melanoma,65.6 µM
